Laboratory results reported in patent US10167262B2, “Herbicidal substituted 3-arylpyrazoles” (FMC CORPORATION, priority 2014, dated 2019).
Like-named read-outs stand apart in the source and are kept apart here.

Experiments:
Type in all cases: in vivo
[1] = system: yellow nutsedge (Cyperus esculentus); test: Test C pre-/postemergence greenhouse test, plant response rating 0-100; conditions: Cyperus; for pest or weed control at 62 g/ha: 62 g ai/ha; for pest or weed control at 125 g/ha: 125 g ai/ha; for pest or weed control at 250 g/ha: 250 g ai/ha; for pest or weed control at 500 g/ha: 500 g ai/ha
Outline: (§1)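 Scores run from 0, no effect, to 100, complete control, assigned by eye after treated plants and controls spent 13 to 15 days in a greenhouse. Soil-applied treatment went onto freshly sown seed in loam and sand; foliar treatment hit seedlings at the 1- to 4-leaf stage.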

soybean (Glycine max) = test: as above; conditions: Glycine max; for plant injury at 62 g/ha: 62 g ai/ha; for plant injury at 125 g/ha: 125 g ai/ha; for plant injury at 250 g/ha: 250 g ai/ha; for plant injury at 500 g/ha: 500 g ai/ha
Outline: as §1

[2] = system: giant foxtail (Setaria faberii); test: as above; conditions: Setaria faberi; for pest or weed control at 62 g/ha: 62 g ai/ha; for pest or weed control at 125 g/ha: 125 g ai/ha; for pest or weed control at 250 g/ha: 250 g ai/ha; for pest or weed control at 500 g/ha: 500 g ai/ha
Outline: as §1

[3] = system: Italian ryegrass (Lolium multiflorum); test: as above; conditions: Lolium multiflorum; for pest or weed control at 62 g/ha: 62 g ai/ha; for pest or weed control at 125 g/ha: 125 g ai/ha; for pest or weed control at 250 g/ha: 250 g ai/ha; for pest or weed control at 500 g/ha: 500 g ai/ha
Outline: as §1

[4] = system: winter wheat (Triticum aestivum); test: as above; conditions: Triticum aestivum; for plant injury at 62 g/ha: 62 g ai/ha; for plant injury at 125 g/ha: 125 g ai/ha; for plant injury at 250 g/ha: 250 g ai/ha; for plant injury at 500 g/ha: 500 g ai/ha
Outline: as §1

[5] = system: large (Lg) crabgrass (Digitaria sanguinalis); test: as above; conditions: Digitaria sanguinalis; for pest or weed control at 62 g/ha: 62 g ai/ha; for pest or weed control at 125 g/ha: 125 g ai/ha; for pest or weed control at 250 g/ha: 250 g ai/ha; for pest or weed control at 500 g/ha: 500 g ai/ha
Outline: as §1

[6] = system: ragweed (common ragweed, Ambrosia elatior); test: as above; conditions: Ambrosia artemisiifolia; for pest or weed control at 62 g/ha: 62 g ai/ha; for pest or weed control at 125 g/ha: 125 g ai/ha; for pest or weed control at 250 g/ha: 250 g ai/ha; for pest or weed control at 500 g/ha: 500 g ai/ha
Outline: as §1

[7] = system: galium (catchweed bedstraw, Galium aparine); test: as above; conditions: Galium; for pest or weed control at 62 g/ha: 62 g ai/ha; for pest or weed control at 125 g/ha: 125 g ai/ha; for pest or weed control at 250 g/ha: 250 g ai/ha; for pest or weed control at 500 g/ha: 500 g ai/ha
Outline: as §1

corn (Zea mays) = test: as above; conditions: Zea mays, pre-emergence, Preemergence
Outline: as §1

[8] = system: pigweed (Amaranthus retroflexus); test: as above; conditions: Amaranthus retroflexus; for pest or weed control at 62 g/ha: 62 g ai/ha; for pest or weed control at 250 g/ha: 250 g ai/ha; for pest or weed control at 500 g/ha: 500 g ai/ha
Outline: as §1

[9] = system: blackgrass (Alopecurus myosuroides); test: as above; conditions: Alopecurus myosuroides; for pest or weed control at 62 g/ha: 62 g ai/ha; for pest or weed control at 125 g/ha: 125 g ai/ha; for pest or weed control at 250 g/ha: 250 g ai/ha; for pest or weed control at 500 g/ha: 500 g ai/ha
Outline: as §1

kochia (Kochia scoparia) = test: Test C postemergence greenhouse test, plant response rating 0-100; conditions: Bassia scoparia, post-emergence
Outline: (§2)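 Plants rated visually 0 (no effect) to 100 (complete control) against untreated controls after 13 to 15 days in the greenhouse, dash indicating no result. Treatment was a postemergence application of formulated chemicals at the 1- to 4-leaf stage (2 to 18 cm), in pots of peat-vermiculite medium.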

[10] = system: chickweed (common chickweed, Stellaria media); test: as above; conditions: Stellaria media, post-emergence
Outline: as §2

wild oat (Avena fatua) = test: as above; conditions: Avena fatua, post-emergence
Outline: as §2

[11] = post-emergence, Postemergence, read-out: Plant response rating (0 to 100), Nutsedge, Yellow
[12] = post-emergence, Postemergence, scale 0 to 100
[13] = pre-emergence, Preemergence, read-out: Plant response rating, Nutsedge, Yellow
[14] = post-emergence, Postemergence, read-out: Plant response rating (0 to 100), Soybean
[15] = pre-emergence, Preemergence, read-out: Plant response rating, Soybean
[16] = post-emergence, Postemergence, read-out: Plant response rating (0 to 100), Foxtail, Giant
[17] = pre-emergence, Preemergence, read-out: Plant response rating, Foxtail, Giant
[18] = post-emergence, Postemergence, read-out: Plant response rating (0 to 100), Ryegrass, Italian
[19] = pre-emergence, Preemergence, read-out: Plant response rating, Ryegrass, Italian
[20] = post-emergence, Postemergence, read-out: Plant response rating (0 to 100), Wheat
[21] = pre-emergence, Preemergence, read-out: Plant response rating, Wheat
[22] = post-emergence, Postemergence, read-out: Plant response rating (0 to 100), Crabgrass, Large
[23] = pre-emergence, Preemergence, read-out: Plant response rating, Crabgrass, Large
[24] = post-emergence, Postemergence, read-out: Plant response rating (0 to 100), Ragweed
[25] = pre-emergence, Preemergence, read-out: Plant response rating, Ragweed
[26] = post-emergence, Postemergence, read-out: Plant response rating (0 to 100), Galium
[27] = pre-emergence, Preemergence, read-out: Plant response rating, Galium
[28] = post-emergence, Postemergence, read-out: Plant response rating (0 to 100), Blackgrass
[29] = pre-emergence, Preemergence, read-out: Plant response rating, Blackgrass

SMILES: C#CCn1cc(C(=O)c2ccccc2)c(-c2cc(Cl)cc(Cl)c2)n1 [Compound 39, [3-(3,5-dichlorophenyl)-1-(2-propyn-1-yl)-1H-pyrazol-4-yl]phenylmethanone]
- pest or weed control at 62 g/ha [1, 11]: 0%
- pest or weed control at 125 g/ha [1, 11]: 0%
- pest or weed control at 250 g/ha [1, 12]: 0%
- pest or weed control at 500 g/ha [1, 12]: 5%
- pest or weed control at 62 g/ha [1, 13]: 0%
- pest or weed control at 125 g/ha [1, 13]: 0%
- pest or weed control at 250 g/ha ([1]; pre-emergence, Preemergence): 0%
- pest or weed control at 500 g/ha ([1]; pre-emergence, Preemergence): 0%
- plant injury at 62 g/ha (soybean (Glycine max); [14]): 0%
- plant injury at 125 g/ha (soybean (Glycine max); [14]): 0%
- plant injury at 250 g/ha (soybean (Glycine max); [12]): 0%
- plant injury at 500 g/ha (soybean (Glycine max); [12]): 0%
- plant injury at 62 g/ha (soybean (Glycine max); [15]): 0%
- plant injury at 125 g/ha (soybean (Glycine max); [15]): 0%
- plant injury at 250 g/ha (soybean (Glycine max); pre-emergence, Preemergence): 0%
- plant injury at 500 g/ha (soybean (Glycine max); pre-emergence, Preemergence): 0%
- pest or weed control at 62 g/ha [2, 16]: 0%
- pest or weed control at 125 g/ha [2, 16]: 0%
- pest or weed control at 250 g/ha [2, 12]: 0%
- pest or weed control at 500 g/ha [2, 12]: 0%
- pest or weed control at 62 g/ha [2, 17]: 0%
- pest or weed control at 125 g/ha [2, 17]: 0%
- pest or weed control at 250 g/ha ([2]; pre-emergence, Preemergence): 0%
- pest or weed control at 500 g/ha ([2]; pre-emergence, Preemergence): 0%
- pest or weed control at 62 g/ha [3, 18]: 0%
- pest or weed control at 125 g/ha [3, 18]: 0%
- pest or weed control at 250 g/ha [3, 12]: 0%
- pest or weed control at 500 g/ha [3, 12]: 0%
- pest or weed control at 62 g/ha [3, 19]: 0%
- pest or weed control at 125 g/ha [3, 19]: 0%
- pest or weed control at 250 g/ha ([3]; pre-emergence, Preemergence): 0%
- pest or weed control at 500 g/ha ([3]; pre-emergence, Preemergence): 0%
- plant injury at 62 g/ha [4, 20]: 0%
- plant injury at 125 g/ha [4, 20]: 0%
- plant injury at 250 g/ha [4, 12]: 0%
- plant injury at 500 g/ha [4, 12]: 0%
- plant injury at 62 g/ha [4, 21]: 0%
- plant injury at 125 g/ha [4, 21]: 0%
- plant injury at 250 g/ha ([4]; pre-emergence, Preemergence): 0%
- plant injury at 500 g/ha ([4]; pre-emergence, Preemergence): 0%
- pest or weed control at 62 g/ha [5, 22]: 0%
- pest or weed control at 125 g/ha [5, 22]: 0%
- pest or weed control at 250 g/ha [5, 12]: 5%
- pest or weed control at 500 g/ha [5, 12]: 15%
- pest or weed control at 62 g/ha [5, 23]: 0%
- pest or weed control at 125 g/ha [5, 23]: 0%
- pest or weed control at 250 g/ha ([5]; pre-emergence, Preemergence): 0%
- pest or weed control at 500 g/ha ([5]; pre-emergence, Preemergence): 0%
- pest or weed control at 62 g/ha [6, 24]: 10%
- pest or weed control at 125 g/ha [6, 24]: 10%
- pest or weed control at 250 g/ha [6, 12]: 35%
- pest or weed control at 500 g/ha [6, 12]: 35%
- pest or weed control at 62 g/ha [6, 25]: 0%
- pest or weed control at 125 g/ha [6, 25]: 20%
- pest or weed control at 250 g/ha ([6]; pre-emergence, Preemergence): 45%
- pest or weed control at 500 g/ha ([6]; pre-emergence, Preemergence): 45%
- pest or weed control at 62 g/ha [7, 26]: 0%
- pest or weed control at 125 g/ha [7, 26]: 0%
- pest or weed control at 250 g/ha [7, 12]: 0%
- pest or weed control at 500 g/ha [7, 12]: 0%
- pest or weed control at 62 g/ha [7, 27]: 0%
- pest or weed control at 125 g/ha [7, 27]: 0%
- pest or weed control at 250 g/ha ([7]; pre-emergence, Preemergence): 5%
- pest or weed control at 500 g/ha ([7]; pre-emergence, Preemergence): 80%
- Corn plant response rating (crop injury, 0 = no effect, 100 = complete kill) at 62 g/ha (corn (Zea mays); 62 g ai/ha): 0%
- Corn plant response rating (crop injury, 0 = no effect, 100 = complete kill) at 125 g/ha (corn (Zea mays); 125 g ai/ha): 0%
- Corn plant response rating (crop injury, 0 = no effect, 100 = complete kill) at 250 g/ha (corn (Zea mays); 250 g ai/ha): 0%
- pest or weed control at 62 g/ha ([8]; post-emergence, Postemergence, read-out: Plant response rating (0 to 100), Pigweed): 90%
- pest or weed control at 250 g/ha [8, 12]: 98%
- pest or weed control at 500 g/ha [8, 12]: 98%
- pest or weed control at 62 g/ha ([8]; pre-emergence, Preemergence, read-out: Plant response rating, Pigweed): 45%
- pest or weed control at 125 g/ha ([8]; pre-emergence, Preemergence, 125 g ai/ha, read-out: Plant response rating, Pigweed): 75%
- pest or weed control at 250 g/ha ([8]; pre-emergence, Preemergence): 85%
- pest or weed control at 500 g/ha ([8]; pre-emergence, Preemergence): 95%
- pest or weed control at 62 g/ha [9, 28]: 0%
- pest or weed control at 125 g/ha [9, 28]: 0%
- pest or weed control at 250 g/ha [9, 12]: 0%
- pest or weed control at 500 g/ha [9, 12]: 0%
- pest or weed control at 62 g/ha [9, 29]: 0%
- pest or weed control at 125 g/ha [9, 29]: 0%
- pest or weed control at 250 g/ha ([9]; pre-emergence, Preemergence): 0%
- pest or weed control at 500 g/ha ([9]; pre-emergence, Preemergence): 0%
- pest or weed control at 62 g/ha (kochia (Kochia scoparia); 62 g ai/ha): 15%
- pest or weed control at 125 g/ha (kochia (Kochia scoparia); 125 g ai/ha): 40%
- pest or weed control at 250 g/ha (kochia (Kochia scoparia); 250 g ai/ha, scale 0 to 100): 55%
- pest or weed control at 500 g/ha (kochia (Kochia scoparia); 500 g ai/ha, scale 0 to 100): 80%
- pest or weed control at 62 g/ha ([10]; 62 g ai/ha): 98%
- pest or weed control at 125 g/ha ([10]; 125 g ai/ha): 98%
- pest or weed control at 250 g/ha ([10]; 250 g ai/ha, scale 0 to 100): 100%
- pest or weed control at 500 g/ha ([10]; 500 g ai/ha, scale 0 to 100): 100%
- pest or weed control at 62 g/ha (wild oat (Avena fatua); 62 g ai/ha): 0%
- pest or weed control at 125 g/ha (wild oat (Avena fatua); 125 g ai/ha): 0%
- pest or weed control at 250 g/ha (wild oat (Avena fatua); 250 g ai/ha, scale 0 to 100): 0%
- pest or weed control at 500 g/ha (wild oat (Avena fatua); 500 g ai/ha, scale 0 to 100): 5%
